# Assays:
# palmer amaranth [1] = test: Field trial in corn at V3, broadcast treatment on 2-4 inch weeds, % weed control; type: in vivo, Amaranthus palmeri
# Description: (§1) The herbicides tested were glufosinate, glyphosate, and mesotrione. Each herbicide was combined at the specified rate with either deionized water or SymMAX™ supramolecular host water mixture commercially available from Shotwell Hydrogenics at 15 gallons per acre (GPA). Specified rates for glufosinate were 22 ounces per acre, 11 ounces per acre, and 5.5 ounces per acre. Specified rates for glyphosate were 22 ounces per acre, 11 ounces per acre, and 5.5 ounces per acre. Specified rates for mesotrione were 3 ounces per acre, 2 ounces per acre, and 1 ounce per acre.
# (§2) This example was conducted as a 4 replicate, RCBD (randomized control block design) in Quitman, GA. An untreated control was used as a standard that provided no weed control and no phytotoxicity. All treatments were compared to the untreated control. Counted dead weeds and living weeds were used to determine % weed control. The untreated control was also used to determine % crop phytotoxicity for the crop. Typical indications of phytotoxicity include chlorosis, stunting, epinasty, and/or leaf burn.
# (§3) The trial ran for 14 days with weekly data assessments taken on % crop phytotoxicity and % weed control of four key species: palmer amaranth (Amaranthus palmeri), ivyleaf morning glory (Ipomoea hederacea), fall panicum (Panicum dichotomiflorum) and large crabgrass (Digitaria sanguinalis The test field was over seeded with weed seed obtained from the University of Georgia prior to corn planting. Treatments were applied as a broadcast treatment when corn had reached physiological growth stage V3 and weeds were in the 2-4″ size range. Treatments were applied at various rates ranging from about 1 ounce per acre to about 22 ounces per acre. Tables 9-10 show the % weed control when the weeds are treated with glufosinate. Tables 11-12 show the % weed control when the weeds are treated with glyphosphate. Tables 13-14 show the % weed control when the weeds are treated with mesotrione.
# ivyleaf morning glory = test: as above; type: in vivo, Ipomoea hederacea
# Description: as §1, §2, §3
# fall panicum [2] = test: as above; type: in vivo, Panicum dichotomiflorum
# Description: as §1, §2, §3
# large crabgrass [3] = test: as above; type: in vivo, Digitaria sanguinalis
# Description: as §1, §2, §3
# palmer amaranth [4] = test: Field trial in corn, herbicide applied 3 days after planting, % weed control; type: in vivo, Amaranthus palmeri
# Procedure: (§4) The herbicides tested were acetochlor and s-metolachlor. Each herbicide was combined at the specified rate with either deionized water or SymMAX™ supramolecular host chemistry that is commercially available from Shotwell Hydrogenics at 15 gallons per acre (GPA). Specified rates for acetochlor were 0.5 parts per acre, 1 part per acre, and 2 parts per acre. […]
# as §2
# (§5) The trial ran for 28 days with weekly data assessments taken on % crop phytotoxicity and % weed control of three key species: palmer amaranth (Amaranthus palmeri), fall panicum (Panicum dichotomiflorum) and large crabgrass (Digitaria sanguinalis). The test field was over seeded with weed seed obtained from the University of Georgia prior to corn planting. Treatments were applied 3 days after planting as a broadcast application at various rates ranging from about 0.5 parts per acre to about 2 parts per acre. Tables 1-4 show the % weed control when the weeds are treated with acetachlor. Tables 4-8 show the % weed control when the weeds are treated with s-metolachlor.
# fall panicum [5] = test: as above; type: in vivo, Panicum dichotomiflorum
# Procedure: as §4, §2, §5
# large crabgrass [6] = test: as above; type: in vivo, Digitaria sanguinalis
# Procedure: as §4, §2, §5
# [7] = 7 days, glyphosate 5.5 ounces/acre
# [8] = 7 days, glyphosate 11 ounces/acre
# [9] = 7 days, glyphosate 22 ounces/acre
# [10] = 14 days, glyphosate 5.5 ounces/acre
# [11] = 14 days, glyphosate 11 ounces/acre
# [12] = 14 days, glyphosate 22 ounces/acre
# [13] = 7 days, mesotrione 1 ounce/acre
# [14] = 7 days, mesotrione 2 ounces/acre
# [15] = 7 days, mesotrione 3 ounces/acre
# [16] = 14 days, mesotrione 1 ounce/acre
# [17] = 14 days, mesotrione 2 ounces/acre
# [18] = 14 days, mesotrione 3 ounces/acre
# [19] = 7 days, acetochlor 0.5 part/acre
# [20] = 7 days, acetochlor 2 parts/acre
# [21] = 14 days, acetochlor 0.5 part/acre
# [22] = 14 days, acetochlor 1 part/acre
# [23] = 14 days, acetochlor 2 parts/acre
# [24] = 21 days, acetochlor 0.5 part/acre
# [25] = 21 days, acetochlor 1 part/acre
# [26] = 21 days, acetochlor 2 parts/acre
# [27] = 28 days, acetochlor 0.5 part/acre
# [28] = 28 days, acetochlor 1 part/acre
# [29] = 28 days, acetochlor 2 parts/acre
structure (smiles),measurement,setting,value
"O=C(O)CNCP(=O)(O)O [Glyphosate, glyphosate]",% WEED CONTROL FOR PALMER AMARANTH,palmer amaranth [1]; [7],63.8%
same,% WEED CONTROL FOR PALMER AMARANTH,palmer amaranth [1]; [8],76.4%
same,% WEED CONTROL FOR PALMER AMARANTH,palmer amaranth [1]; [9],81.9%
same,% WEED CONTROL FOR PALMER AMARANTH,palmer amaranth [1]; [10],58.3%
same,% WEED CONTROL FOR PALMER AMARANTH,palmer amaranth [1]; [11],75.8%
same,% WEED CONTROL FOR PALMER AMARANTH,palmer amaranth [1]; [12],83.5%
same,% WEED CONTROL FOR IVYLEAF MORNINGLORY,ivyleaf morning glory; [7],14.3%
same,% WEED CONTROL FOR IVYLEAF MORNINGLORY,ivyleaf morning glory; [8],13.5%
same,% WEED CONTROL FOR IVYLEAF MORNINGLORY,ivyleaf morning glory; [9],28.0%
same,% WEED CONTROL FOR IVYLEAF MORNINGLORY,ivyleaf morning glory; [10],9.7%
same,% WEED CONTROL FOR IVYLEAF MORNINGLORY,ivyleaf morning glory; [11],59.8%
same,% WEED CONTROL FOR IVYLEAF MORNINGLORY,ivyleaf morning glory; [12],76.3%
same,% WEED CONTROL FOR FALL PANICUM,fall panicum [2]; [7],85.8%
same,% WEED CONTROL FOR FALL PANICUM,fall panicum [2]; [8],97.5%
same,% WEED CONTROL FOR FALL PANICUM,fall panicum [2]; [9],98.8%
same,% WEED CONTROL FOR FALL PANICUM,fall panicum [2]; [10],81.8%
same,% WEED CONTROL FOR FALL PANICUM,fall panicum [2]; [11],95.4%
same,% WEED CONTROL FOR FALL PANICUM,fall panicum [2]; [12],98.4%
same,% WEED CONTROL FOR LARGE CRABGRASS,large crabgrass [3]; [7],90.8%
same,% WEED CONTROL FOR LARGE CRABGRASS,large crabgrass [3]; [8],97.8%
same,% WEED CONTROL FOR LARGE CRABGRASS,large crabgrass [3]; [9],100.0%
same,% WEED CONTROL FOR LARGE CRABGRASS,large crabgrass [3]; [10],89.0%
same,% WEED CONTROL FOR LARGE CRABGRASS,large crabgrass [3]; [11],94.0%
same,% WEED CONTROL FOR LARGE CRABGRASS,large crabgrass [3]; [12],98.0%
"CS(=O)(=O)c1ccc(C(=O)C2C(=O)CCCC2=O)c([N+](=O)[O-])c1 [Mesotrione, mesotrione]",% WEED CONTROL FOR PALMER AMARANTH,palmer amaranth [1]; [13],87.4%
same,% WEED CONTROL FOR PALMER AMARANTH,palmer amaranth [1]; [14],97.7%
same,% WEED CONTROL FOR PALMER AMARANTH,palmer amaranth [1]; [15],99.0%
same,% WEED CONTROL FOR PALMER AMARANTH,palmer amaranth [1]; [16],95.1%
same,% WEED CONTROL FOR PALMER AMARANTH,palmer amaranth [1]; [17],97.0%
same,% WEED CONTROL FOR PALMER AMARANTH,palmer amaranth [1]; [18],99.3%
same,% WEED CONTROL FOR IVYLEAF MORNINGLORY,ivyleaf morning glory; [13],64.5%
same,% WEED CONTROL FOR IVYLEAF MORNINGLORY,ivyleaf morning glory; [14],91.6%
same,% WEED CONTROL FOR IVYLEAF MORNINGLORY,ivyleaf morning glory; [15],94.2%
same,% WEED CONTROL FOR IVYLEAF MORNINGLORY,ivyleaf morning glory; [16],88.8%
same,% WEED CONTROL FOR IVYLEAF MORNINGLORY,ivyleaf morning glory; [17],96.5%
same,% WEED CONTROL FOR IVYLEAF MORNINGLORY,ivyleaf morning glory; [18],99.1%
same,% WEED CONTROL FOR FALL PANICUM,fall panicum [2]; [13],62.8%
same,% WEED CONTROL FOR FALL PANICUM,fall panicum [2]; [14],72.3%
same,% WEED CONTROL FOR FALL PANICUM,fall panicum [2]; [15],87.3%
same,% WEED CONTROL FOR FALL PANICUM,fall panicum [2]; [16],54.8%
same,% WEED CONTROL FOR FALL PANICUM,fall panicum [2]; [17],62.3%
same,% WEED CONTROL FOR FALL PANICUM,fall panicum [2]; [18],86.0%
same,% WEED CONTROL FOR LARGE CRABGRASS,large crabgrass [3]; [13],62.3%
same,% WEED CONTROL FOR LARGE CRABGRASS,large crabgrass [3]; [14],81.5%
same,% WEED CONTROL FOR LARGE CRABGRASS,large crabgrass [3]; [15],91.5%
same,% WEED CONTROL FOR LARGE CRABGRASS,large crabgrass [3]; [16],63.0%
same,% WEED CONTROL FOR LARGE CRABGRASS,large crabgrass [3]; [17],78.8%
same,% WEED CONTROL FOR LARGE CRABGRASS,large crabgrass [3]; [18],88.5%
"CCOCN(C(=O)CCl)c1c(C)cccc1CC [Acetochlor, acetochlor]",% WEED CONTROL FOR PALMER AMARANTH,palmer amaranth [4]; [19],87.0%
same,% WEED CONTROL FOR PALMER AMARANTH,"palmer amaranth [4]; 7 days, acetochlor 1 part/acre",88.5%
same,% WEED CONTROL FOR PALMER AMARANTH,palmer amaranth [4]; [20],93.3%
same,% WEED CONTROL FOR PALMER AMARANTH,palmer amaranth [4]; [21],82.3%
same,% WEED CONTROL FOR PALMER AMARANTH,palmer amaranth [4]; [22],87.0%
same,% WEED CONTROL FOR PALMER AMARANTH,palmer amaranth [4]; [23],97.7%
same,% WEED CONTROL FOR PALMER AMARANTH,palmer amaranth [4]; [24],61.7%
same,% WEED CONTROL FOR PALMER AMARANTH,palmer amaranth [4]; [25],81.0%
same,% WEED CONTROL FOR PALMER AMARANTH,palmer amaranth [4]; [26],90.0%
same,% WEED CONTROL FOR PALMER AMARANTH,palmer amaranth [4]; [27],44.5%
same,% WEED CONTROL FOR PALMER AMARANTH,palmer amaranth [4]; [28],67.4%
same,% WEED CONTROL FOR PALMER AMARANTH,palmer amaranth [4]; [29],99.7%
same,% WEED CONTROL FOR FALL PANICUM,fall panicum [5]; [19],65.5%
same,% WEED CONTROL FOR FALL PANICUM,"fall panicum [5]; 7 days, acetochlor 1 part/acre",69.3%
same,% WEED CONTROL FOR FALL PANICUM,fall panicum [5]; [20],87.3%
same,% WEED CONTROL FOR FALL PANICUM,fall panicum [5]; [21],49.3%
same,% WEED CONTROL FOR FALL PANICUM,fall panicum [5]; [22],53.0%
same,% WEED CONTROL FOR FALL PANICUM,fall panicum [5]; [23],78.0%
same,% WEED CONTROL FOR FALL PANICUM,fall panicum [5]; [24],37.6%
same,% WEED CONTROL FOR FALL PANICUM,fall panicum [5]; [25],40.9%
same,% WEED CONTROL FOR FALL PANICUM,fall panicum [5]; [26],81.3%
same,% WEED CONTROL FOR FALL PANICUM,fall panicum [5]; [27],60.0%
same,% WEED CONTROL FOR FALL PANICUM,fall panicum [5]; [28],57.3%
same,% WEED CONTROL FOR FALL PANICUM,fall panicum [5]; [29],88.0%
same,% WEED CONTROL FOR LARGE CRABGRASS,large crabgrass [6]; [19],69.5%
same,% WEED CONTROL FOR LARGE CRABGRASS,"large crabgrass [6]; 7 days, acetochlor 1 part/acre",74.5%
same,% WEED CONTROL FOR LARGE CRABGRASS,large crabgrass [6]; [20],87.0%
same,% WEED CONTROL FOR LARGE CRABGRASS,large crabgrass [6]; [21],45.8%
same,% WEED CONTROL FOR LARGE CRABGRASS,large crabgrass [6]; [22],49.0%
same,% WEED CONTROL FOR LARGE CRABGRASS,large crabgrass [6]; [23],74.5%
same,% WEED CONTROL FOR LARGE CRABGRASS,large crabgrass [6]; [24],45.3%
same,% WEED CONTROL FOR LARGE CRABGRASS,large crabgrass [6]; [25],43.0%
same,% WEED CONTROL FOR LARGE CRABGRASS,large crabgrass [6]; [26],73.3%
same,% WEED CONTROL FOR LARGE CRABGRASS,large crabgrass [6]; [27],47.8%
same,% WEED CONTROL FOR LARGE CRABGRASS,large crabgrass [6]; [28],48.0%
same,% WEED CONTROL FOR LARGE CRABGRASS,large crabgrass [6]; [29],92.1%

# Source: patent US20230109010A1, “PESTICIDE COMPOSITIONS WITH SUPRAMOLECULAR STRUCTURES FOR AGRICULTURAL USE” (BPS JUST ENERGY TECHNOLOGY, LLC, priority 2020, published 2023)
